Consider four molecules from PMC7993833, “EDP-938, a novel nucleoprotein inhibitor of respiratory syncytial virus, demonstrates potent antiviral activities in vitro and in a non-human primate model” (PLoS Pathogens, 2021).

Data set [1] relates to GS-5806- and AZ-27-resistant RSV. As to the kind of experiment: Activity against GS-5806- and AZ-27-selected resistant viruses. It counts as cell-based, respiratory syncytial virus. Conditions: own resistant virus.
The test system of data set [2] is RSV-B VR-955 EDP-938 resistant populations. As to the kind of experiment: Susceptibility of EDP-938 resistant RSV-B VR-955 populations. It counts as cell-based, respiratory syncytial virus.
Data set [3] has as its system RSV. Description: Single-round synchronized infection time-of-addition, RT-qPCR endpoint. It counts as cell-based, respiratory syncytial virus. The note with it: HEp-2; MOI 3; cold-synchronized; 2x or 20x EC50; added 0-8 hpi; RT-qPCR at 24 hpi. Here is the method: In order to help determine which step of the viral life cycle EDP-938 blocks multiple in vitro time-of-addition studies were performed. In the first study, EDP-938 was administered to cells infected with RSV-A Long at a MOI of 0.1 at 2 hours pre-infection (-2) or 2, 6, or 24 hours post-infection (hpi), and viral CPE evaluated 5 days later. […] A second time-of-addition study explored the ability of EDP-938 to protect not just a population experiencing a spreading infection, but individual cells already infected with RSV. Using a MOI of 3, which infects approximately 95% of all cells, virus was cold-adsorbed to the cells for 1 hour to synchronize infection before transfer to 37°C to induce fusion (marking the 0 hpi time point). Compound was added at times indicated and a 24 hpi RT-qPCR endpoint was employed to constrain viral replication cycle to a single complete cycle.
For single round infection synchronized infection 25,000 HEp-2 cpw seeded 1-day pre-infection. Plates brought to 4°C, viral infection at 3 MOI calculated for 30,000 cpw incubated at 4°C 1hr. Compound added to 0h plate and plates moved to 37°C. Compound added at 2h, 4h, 6h, and 8h post-incubation (when plates moved to 37°C) to appropriate plates. 24 hpi viral copies measured with RT-qPCR as described above.
On the technique in general: Quantitative PCR measures a nucleic acid by following its amplification.

Data set [4] relates to recombinant RSV A2-line19F, N protein mutants.
Data set [5] has the same test system. As to the kind of experiment: microbe, parasite or virus in culture. Conditions: human respiratory syncytial virus.
Data set [6] concerns RSV-A Long. As to the kind of experiment: CPE assay (ATPlite), RSV-A Long in HEp-2 cells. The format is cell-based. Conditions: human respiratory syncytial virus. In general terms: Cellular ATP, detected with luciferase, serves as a proxy for viable cell number.
For data set [7], the system named is RSV-A Long. Description: RT-qPCR viral load assay, RSV-A Long in HEp-2 cells. The format is cell-based. Conditions: human respiratory syncytial virus.
The test system of another data set is RSV A2. As to the kind of experiment: RSV-infected African Green monkey model, viral load. The format is in vivo, African Green monkeys (Chlorocebus). Conditions: 100 mg/kg BID oral gavage; BAL. How it is done:
African Green monkeys (AGMs) are permissive for human RSV infection and support a relatively higher level of viral replication compared to cotton rats and BALB/c mice. It has been previously validated as a non-human primate model for assessing in vivo efficacy of potential RSV vaccines and antiviral drugs. To evaluate the activity of EDP-938 in the AGM model, 4 animals each were treated with 100 mg/kg BID with EDP-938, RSV-604, or vehicle control via oral gavage starting 24 hours prior to RSV challenge and continuing for an additional 5 days. Samples were collected through bronchoalveolar lavage (BAL) and nasopharyngeal (NP) swab at various time points to determine viral load. […] Viral load in the NP swab samples was also determined.
A study of EDP-938 and RSV-604 in the African Green monkey (AGM) animal model was performed by BIOQUAL, Inc (Rockville, Maryland). Methods were similar to those run in a study by Ispas et al.. Six (6) male and 6 female AGMs (Chlorocebus) of 4–5 kg were purchased from PrimGen (Hines, Illinois). Each animal was challenged with 2 x 10^5 PFU of RSV A2 viral inoculum (Virapur, San Diego, CA). Four animals (2 per sex) in each group were treated with EDP-938, RSV-604, or vehicle control (0.5% w/v methylcellulose). The animals were dosed via oral gavage twice daily (every 12 hours), starting 24 hours prior to RSV challenge, and then continuing for an additional 5 days (6 total days of dose administration). Bronchoalveolar lavage (BAL) samples and nasopharyngeal (NP) swabs were collected for viral load determination.

A short description of data set [8]: Plasma drug exposure in African Green monkey study. It counts as in vivo, African Green monkeys (Chlorocebus). The note with it: both sexes, in vivo, 100 mg/kg BID oral, read-out: mean plasma Ctrough. An excerpt:
The African green monkey model was selected for EDP-938 in vivo studies for its higher level of viral replication versus cotton rats and BALB/c mice. […] In this previous trial, patients who achieved RSV-604 levels in excess of the EC90 experienced a 2.31 log reduction in viral load. […] The lack of antiviral activity observed with RSV-604 could be a function of relatively poor potency compared to EDP-938 (Fig 1) and/or insufficient tissue exposure. While in this study the animals were not sacrificed and thus the drug level in the lung could not be determined, plasma samples were taken at 12h after the last dose (Ctrough) to confirm drug exposure. […] It is reasonable to project that given the same dose or exposure EDP-938 should perform better than RSV-604 in RSV infected patients as well.
A study of EDP-938 and RSV-604 in the African Green monkey (AGM) animal model was performed by BIOQUAL, Inc (Rockville, Maryland). Methods were similar to those run in a study by Ispas et al.. Six (6) male and 6 female AGMs (Chlorocebus) of 4–5 kg were purchased from PrimGen (Hines, Illinois). Each animal was challenged with 2 x 10^5 PFU of RSV A2 viral inoculum (Virapur, San Diego, CA). Four animals (2 per sex) in each group were treated with EDP-938, RSV-604, or vehicle control (0.5% w/v methylcellulose). […]

The test system of data set [9] is RSV. Details: method as in PMID 31915807. The note with it: patients who achieved RSV-604 levels in excess of the EC90; cited from earlier work.
The test system of the next data set is RSV replicon. Further details: method as in PMID 25451060. The note with it: compared to AZ-27; cited from earlier work.
The test system of data set [10] is RSV. Details: method as in PMID 19707346. Conditions: premature infants; monthly injection; cited from earlier work.
Where [11] appears, read: HEp-2, recombinant RSV Wild-type (WT), HEp2.

“Also recorded” adds a separate entry of the source. Read-outs that look alike come from different tables or passages of the source.

`O=C(NC1CC1)c1cc2c(s1)-c1ccccc1N(C(=O)c1ccc(NC(=O)c3cccnc3N3CCC4(CC3)COC4)cc1)CC2` [AZ-27]: in data set [1], the “activity against the virus selected for resistance with the same compound” value is given as “lost all ability to inhibit their resistant viruses”.

As a reminder, the EC50 is the midpoint of the concentration-response curve. Consider `Cc1cn2nc([C@@H]3CCCCN3C(=O)c3cc(Cl)ccc3NS(C)(=O)=O)cc2nc1N1CC[C@H](N)C1` [GS-5806], for which the “EC50 Fold Change vs. WT” value in data set [2] (RSV-B VR-955 Population 1, N: M109K, L139Q (dual WT/mutant population)) was found to be 0.2 fold; in data set [2] (RSV-B VR-955 Population 2, N: M109T), 0.2 fold; in [2] (RSV-B VR-955 Wild-Type), 1 fold; in data set [4] (recombinant RSV N K107N) it was 0.7 fold; in data set [4] (recombinant RSV N K136R), 4.2 fold; in data set [4] (recombinant RSV N L139I), 1.3 fold. Also, the “EC50 Fold Change vs. WT” value worked out at 0.8 fold in data set [4] (recombinant RSV N M109I); 0.5 fold in data set [4] (recombinant RSV N M109K); 1.6 fold in [4] (recombinant RSV N M109T); 1.1 fold in [4] (recombinant RSV N N105D); 1.8 fold in [4] (recombinant RSV N S134T); 1.0 fold in data set [4] (recombinant RSV N V90A). In addition, in [4] (recombinant RSV Wild-type (WT)), the “EC50 Fold Change vs. WT” value is 1.0 fold. Moreover, in the data set on RSV [3], the “inhibition of viral RNA production by time of addition” value was “reduced when added at 0 hpi and completely lost when added at 8 hpi”. Further, the “activity against the virus selected for resistance with the same compound” value in data set [1] was “lost all ability to inhibit their resistant viruses”. Moreover, the concentration giving a half-maximal response (EC50) in [5] (HEp-2, recombinant RSV N K107N) worked out at 0.09 ± 0.07 nM; in data set [5] (HEp-2, recombinant RSV N K136R), 0.54 ± 0.34 nM; in data set [5] (HEp-2, recombinant RSV N L139I), 0.17 ± 0.15 nM; in data set [5] (HEp-2, recombinant RSV N M109I), 0.11 ± 0.09 nM; in data set [5] (HEp-2, recombinant RSV N M109K), 0.06 ± 0.05 nM; in [5] (HEp-2, recombinant RSV N M109T), 0.21 nM. The EC50 in data set [5] (HEp-2, recombinant RSV N N105D) is 0.14 ± 0.2 nM; in data set [5] (HEp-2, recombinant RSV N S134T), 0.23 ± 0.3 nM; in data set [5] (HEp-2, recombinant RSV N V90A), 0.13 nM; in data set [5] (setting [11]) it was 0.13 ± 0.12 nM.

Take `O=C(Nc1ccccc1F)N[C@H]1N=C(c2ccccc2)c2ccccc2NC1=O` [RSV-604]: the EC50 in the data set on RSV-A Long [6] (HEp-2, 120 h) is 1430 nM; in the data set on RSV-A Long [6] (HEp-2, read-out: EC50, RSV-A Long-induced CPE), around 1400 nM; in the data set with RSV-A Long [7] (HEp-2, 120 h), 1980 nM; in the data set on RSV-A Long [7] (HEp-2, read-out: EC50, inhibition of viral replication), around 2000 nM; in [5] (HEp-2, recombinant RSV N K107N), 1810 nM; in data set [5] (HEp-2, recombinant RSV N K136R), 4300 nM. The EC50 in data set [5] (HEp-2, recombinant RSV N L139I) was 9550 nM; in data set [5] (HEp-2, recombinant RSV N M109I), 514 ± 159 nM; in data set [5] (HEp-2, recombinant RSV N M109K), 2870 nM; in [5] (HEp-2, recombinant RSV N M109T), 1860 nM; in data set [5] (HEp-2, recombinant RSV N N105D) it was 2700 nM; in data set [5] (HEp-2, recombinant RSV N S134T), 2480 nM. Besides, the EC50 turned out to be 1420 nM in data set [5] (HEp-2, recombinant RSV N V90A) and 1150 nM in data set [5] (setting [11]). For the same molecule, the “EC50 Fold Change vs. WT” value in data set [2] (RSV-B VR-955 Wild-Type) stood at 1 fold; in data set [4] (recombinant RSV N K107N), 1.6 fold; in data set [4] (recombinant RSV N K136R), 3.7 fold; in data set [4] (recombinant RSV N L139I) it was 8.3 fold; in [4] (recombinant RSV N M109I), 0.4 fold; in data set [4] (recombinant RSV N M109K), 2.5 fold. The “EC50 Fold Change vs. WT” value in [4] (recombinant RSV N M109T) was found to be 1.6 fold; in [4] (recombinant RSV N N105D) it was 2.3 fold; in [4] (recombinant RSV N S134T), 2.1 fold; in data set [4] (recombinant RSV N V90A) it was 1.2 fold; in data set [4] (recombinant RSV Wild-type (WT)) it was 1.0 fold. For the same molecule, in the data set on RSV A2, the “effect on RSV viral load vs vehicle control” value was “did not result in significant RSV viral load reduction; also recorded: unable to reduce viral load in a statistically significant manner”. For the same molecule, the concentration at 12 h after the last dose in data set [8] amounted to 637 nM. For the same molecule, in the data set with RSV [9], the “reduction in viral load” value was 2.31 log. Moreover, the “effect in a replicon assay” value in the data set on RSV replicon is recorded as “minimal effect”.

As to “palivizumab: monthly injectable monoclonal antibody against RSV”, in the data set on RSV [10], the “relative reduction in RSV-associated hospitalizations” value is “approximately 55%”.
